In PubChem BioAssay (NCI):
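A five-concentration, 48-hour dose response in 96-well plates underlies each endpoint, interpolated linearly between surrounding concentrations. GI50 marks 50% less growth. At the TGI there is no net growth.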

Legend:
Experiment in all cases: growth of human tumour cells (NCI), 48 h
SR leukemia = system: SR leukemia
HCT-15 colon = system: HCT-15 colon
786-0 renal = system: 786-0 renal
SN12C renal = system: SN12C renal
OVCAR-5 ovarian = system: OVCAR-5 ovarian
SF-295 CNS = system: SF-295 CNS
A549 NSCLC = system: A549 NSCLC
SF-268 CNS = system: SF-268 CNS
OVCAR-8 ovarian = system: OVCAR-8 ovarian
NCI-H226 lung = system: NCI-H226 lung
K-562 leukemia = system: K-562 leukemia
LXFL 529 NSCLC = system: LXFL 529 NSCLC
MALME-3M melanoma = system: MALME-3M melanoma
M14 melanoma = system: M14 melanoma
DMS 273 small cell lung = system: DMS 273 small cell lung
IGROV1 ovarian = system: IGROV1 ovarian
SF-539 CNS = system: SF-539 CNS
KM20L2 colon = system: KM20L2 colon
RXF-631 renal = system: RXF-631 renal
OVCAR-4 ovarian = system: OVCAR-4 ovarian
TK-10 renal = system: TK-10 renal
HT29 colon = system: HT29 colon
EKVX NSCLC = system: EKVX NSCLC
ACHN renal = system: ACHN renal
SK-MEL-28 melanoma = system: SK-MEL-28 melanoma
RXF 393 renal = system: RXF 393 renal
CAKI-1 renal = system: CAKI-1 renal
NCI-H23 lung = system: NCI-H23 lung
SK-OV-3 ovarian = system: SK-OV-3 ovarian
M19-MEL melanoma = system: M19-MEL melanoma
DLD-1 colon = system: DLD-1 colon
UACC-257 melanoma = system: UACC-257 melanoma
SK-MEL-5 melanoma = system: SK-MEL-5 melanoma
UO-31 renal = system: UO-31 renal
A498 renal = system: A498 renal
HCT-116 colon = system: HCT-116 colon
U251 CNS = system: U251 CNS
COLO 205 colon = system: COLO 205 colon
SNB-78 CNS = system: SNB-78 CNS
OVCAR-3 ovarian = system: OVCAR-3 ovarian
SNB-19 CNS = system: SNB-19 CNS
SK-MEL-2 melanoma = system: SK-MEL-2 melanoma
NCI-H522 lung = system: NCI-H522 lung
UACC-62 melanoma = system: UACC-62 melanoma
SNB-75 CNS = system: SNB-75 CNS
SW-620 colon = system: SW-620 colon
XF 498 CNS = system: XF 498 CNS
CCRF-CEM leukemia = system: CCRF-CEM leukemia
MOLT-4 leukemia = system: MOLT-4 leukemia
KM12 colon = system: KM12 colon
HOP-62 NSCLC = system: HOP-62 NSCLC
HCC-2998 colon = system: HCC-2998 colon

## CC(=O)CC(=O)Nc1c(C)[c]([Hg][O]C(C)=O)c(C)[c]([Hg][O]C(C)=O)[c]1[Hg][O]C(C)=O
SR leukemia
  GI50: 5.31 µM
  TGI: > 100 µM
HCT-15 colon
  GI50: 15.1 µM
  TGI: 35.7 µM
786-0 renal
  GI50: 10.9 µM
  TGI: 24.4 µM
SN12C renal
  GI50: 17.5 µM
  TGI: 33.3 µM
OVCAR-5 ovarian
  GI50: 28.9 µM
  TGI: 71.8 µM
SF-295 CNS
  GI50: 18.5 µM
  TGI: 36.2 µM
A549 NSCLC
  GI50: 17.1 µM
  TGI: 34.2 µM
SF-268 CNS
  GI50: 15.4 µM
  TGI: 35.4 µM
OVCAR-8 ovarian
  GI50: 10.9 µM
  TGI: 24.4 µM
NCI-H226 lung
  GI50: 29.4 µM
  TGI: 56.5 µM
K-562 leukemia
  GI50: 4 µM
  TGI: > 100 µM
LXFL 529 NSCLC
  GI50: 6.54 µM
  TGI: 20.7 µM
MALME-3M melanoma
  GI50: 6.56 µM
  TGI: 20.4 µM
M14 melanoma
  GI50: 12.7 µM
  TGI: 29.8 µM
DMS 273 small cell lung
  GI50: 18.4 µM
  TGI: 50.4 µM
IGROV1 ovarian
  GI50: 15.4 µM
  TGI: 40.7 µM
SF-539 CNS
  GI50: 18.1 µM
  TGI: 37.1 µM
KM20L2 colon
  GI50: 18.8 µM
  TGI: 48.2 µM
RXF-631 renal
  GI50: 2.39 µM
  TGI: 7.75 µM
OVCAR-4 ovarian
  GI50: 15.6 µM
  TGI: 30.6 µM
TK-10 renal
  GI50: 13 µM
  TGI: 25.7 µM
HT29 colon
  GI50: 12.2 µM
  TGI: 30.5 µM
EKVX NSCLC
  GI50: 20.6 µM
  TGI: 41.3 µM
ACHN renal
  GI50: 14.2 µM
  TGI: 27.3 µM
SK-MEL-28 melanoma
  GI50: 12.6 µM
  TGI: 26.3 µM
RXF 393 renal
  GI50: 3.44 µM
  TGI: 16.2 µM
CAKI-1 renal
  GI50: 18.6 µM
  TGI: 32.6 µM
NCI-H23 lung
  GI50: 10.6 µM
  TGI: 24.5 µM
SK-OV-3 ovarian
  GI50: 20.9 µM
  TGI: 35.3 µM
M19-MEL melanoma
  GI50: 15.4 µM
  TGI: 36.5 µM
DLD-1 colon
  GI50: 13.6 µM
  TGI: 51.1 µM
UACC-257 melanoma
  GI50: 14.4 µM
  TGI: 28.5 µM
SK-MEL-5 melanoma
  GI50: 2.99 µM
  TGI: 11.3 µM
UO-31 renal
  GI50: 22.4 µM
  TGI: 40 µM
A498 renal
  GI50: 15.3 µM
  TGI: 28.8 µM
HCT-116 colon
  GI50: 18.2 µM
  TGI: 41.1 µM
U251 CNS
  GI50: 11.7 µM
  TGI: 24.6 µM
COLO 205 colon
  GI50: 33.3 µM
  TGI: > 100 µM
SNB-78 CNS
  GI50: 22.7 µM
  TGI: 58.4 µM
OVCAR-3 ovarian
  GI50: 12.8 µM
  TGI: 25.5 µM
SNB-19 CNS
  GI50: 2.47 µM
  TGI: 6.61 µM
SK-MEL-2 melanoma
  GI50: 16.1 µM
  TGI: 31.7 µM
NCI-H522 lung
  GI50: 10.4 µM
  TGI: 35.8 µM
UACC-62 melanoma
  GI50: 11.8 µM
  TGI: 24.1 µM
SNB-75 CNS
  GI50: 12.9 µM
  TGI: 25.9 µM
SW-620 colon
  GI50: 10 µM
  TGI: 27.4 µM
XF 498 CNS
  GI50: 4.38 µM
  TGI: 15.6 µM
CCRF-CEM leukemia
  GI50: 4.01 µM
  TGI: 49.5 µM
MOLT-4 leukemia
  GI50: 10.3 µM
  TGI: > 100 µM
KM12 colon
  GI50: 16.9 µM
  TGI: 34.8 µM
HOP-62 NSCLC
  GI50: 20.8 µM
  TGI: 36.4 µM
HCC-2998 colon
  GI50: 17.6 µM
  TGI: 32.6 µM
